Source: patent US10913738B2 (BRISTOL-MYERS SQUIBB COMPANY, priority 2017, dated 2021)
Read-outs that look alike come from different tables or passages of the source.

Tests used:
[1] = test system: MLKL phosphorylation in HT29-L23 human colorectal adenocarcinoma cells; test: MLKL Phosphorylation High-Content Assay; assay type: cell-based; settings: Homo sapiens
In short: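 IC50 and Ymax obtained by 4-parameter logistic fitting of MLKL phosphorylation, measured as mean circ-ring average intensity ratio from high-content images. Staining used an anti-phospho-S358 MLKL antibody overnight at 4° C., following six-hour cell incubation at 37° C.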

[2] = target: T1, His-GST-TVMV-hRIPK1(1-324) (Homo sapiens, UniProt Q13546); test: RIPK1 HTRF Binding Assay
T1 construct: The coding region of human RIPK1(1-324) flanked by NdeI site at 5′ end; made in house; host or cells: Spodoptera frugiperda (Sf9) insect cells, baculovirus
T1 sequence (Q13546 1-324): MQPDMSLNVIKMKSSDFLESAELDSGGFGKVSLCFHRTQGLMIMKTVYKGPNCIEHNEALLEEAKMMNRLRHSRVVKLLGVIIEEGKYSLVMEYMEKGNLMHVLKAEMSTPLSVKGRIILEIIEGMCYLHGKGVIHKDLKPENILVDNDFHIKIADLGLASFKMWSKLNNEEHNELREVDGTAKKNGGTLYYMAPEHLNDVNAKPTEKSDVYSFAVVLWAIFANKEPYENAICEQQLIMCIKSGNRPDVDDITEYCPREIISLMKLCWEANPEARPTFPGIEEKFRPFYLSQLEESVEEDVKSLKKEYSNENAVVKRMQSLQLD

[3] = x marks IC50 class 20-200 nM, read-out: pMLKL cell activity 20-200 nM
[4] = x marks IC50 class <20 nM, read-out: RIPK1 HTRF binding <20 nM
[5] = x marks IC50 class <20 nM, read-out: pMLKL cell activity <20 nM
[6] = x marks IC50 class 20-200 nM, read-out: RIPK1 HTRF binding 20-200 nM
[7] = x marks IC50 class >200 nM, read-out: pMLKL cell activity >200 nM

`COc1ncc(-c2ccn3nc(N)nc3c2)cc1C(=O)NCc1ccc(F)cc1OC1CCOCC1` [Example 80, 5-{2-Amino-[1,2,4]triazolo[1,5-a]pyridin-7-yl}-N-{[4-fluoro-2-(oxan-4-yloxy)phenyl]methyl}-2-methoxypyridine-3-carboxamide] was tested, and the IC50 [1, 3] was 20 to 200 nM and the IC50 [2, 4] was < 20 nM.

In the case of `COc1ncc(-c2ccn3nc(N)nc3c2)cc1C(=O)NCc1ccccc1OCC1CC1` [Example 81, 5-{2-Amino-[1,2,4]triazolo[1,5-a]pyridin-7-yl}-N-{[2-(cyclopropylmethoxy)phenyl]methyl}-2-methoxypyridine-3-carboxamide], the IC50 [1, 5] is reported as < 20 nM and the IC50 [2, 4] is reported as < 20 nM.

Compound `COc1ncc(-c2ccn3nc(N)nc3c2)cc1C(=O)Nc1cnn(Cc2ccccc2)c1` [Example 84, 5-{2-Amino-[1,2,4]triazolo[1,5-a]pyridin-7-yl}-N-(1-benzyl-1H-pyrazol-4-yl)-2-methoxypyridine-3-carboxamide] has an IC50 [1, 3] of 20 to 200 nM and an IC50 [2, 6] of 20 to 200 nM.

With `CCc1ncc(-c2ccn3nc(N)nc3c2)cc1C(=O)NCc1cc(OC(F)(F)F)ccc1F` [Example 86, 5-{2-amino-[1,2,4]triazolo[1,5-a]pyridin-7-yl}-2-ethyl-N-{[2-fluoro-5-(trifluoromethoxy)phenyl]methyl}pyridine-3-carboxamide] the IC50 [1, 3] was 20 to 200 nM and the IC50 [2, 4] was < 20 nM.

In the case of `[2H]C([2H])(NC(=O)c1cc(-c2ccn3nc(N)nc3c2)cnc1OC)c1cc(OC(F)(F)F)ccc1F` [Example 87, 5-{2-amino-[1,2,4]triazolo[1,5-a]pyridin-7-yl}-N-{[2-fluoro-5-(trifluoromethoxy)phenyl] (deutero)methyl}-2-methoxypyridine-3-carboxamide], the IC50 [1, 3] is reported as 20 to 200 nM and the IC50 [2, 4] is reported as < 20 nM.

`[2H]C([2H])(NC(=O)c1cc(-c2ccn3nc(N)nc3c2)cnc1OC)c1cc(F)cc(F)c1OCC1CC1` [Example 88, 5-{2-amino-[1,2,4]triazolo[1,5-a]pyridin-7-yl}-N-{[2-(cyclopropylmethoxy)-3,5-difluorophenyl](deutero)methyl}-2-methoxypyridine-3-carboxamide] was tested, and the IC50 [1, 5] was < 20 nM and the IC50 [2, 4] was < 20 nM.

`[2H]C([2H])([2H])Oc1ncc(-c2ccn3nc(N)nc3c2)cc1C(=O)NCc1ccccc1OC(F)(F)F` [Example 90, 5-{2-amino-[1,2,4]triazolo[1,5-a]pyridin-7-yl}-2-(deutero)methoxy-N-{[2-(trifluoromethoxy)phenyl]methyl}pyridine-3-carboxamide] was tested, and the IC50 [1, 3] was 20 to 200 nM and the IC50 [2, 4] was < 20 nM.

`[2H]C([2H])([2H])Oc1ncc(-c2ccn3nc(N)nc3c2)cc1C(=O)NCc1cc(C(F)(F)F)ccc1F` [Example 91, 5-{2-amino-[1,2,4]triazolo[1,5-a]pyridin-7-yl}-N-{[2-fluoro-5-(trifluoromethyl)phenyl]methyl}-2-(deutero)methoxypyridine-3-carboxamide] showed an IC50 [1, 3] of 20 to 200 nM and an IC50 [2, 6] of 20 to 200 nM.

For `[2H]C([2H])([2H])Oc1ncc(-c2ccn3nc(N)nc3c2)cc1C(=O)NCc1cc(OC(F)(F)F)ccc1F` [Example 92, 5-{2-amino-[1,2,4]triazolo[1,5-a]pyridin-7-yl}-N-{[2-fluoro-5-(trifluoromethoxy)phenyl]methyl}-2-(deutero)methoxypyridine-3-carboxamide], the IC50 [1, 5] was < 20 nM and the IC50 [2, 4] was < 20 nM.

`[2H]C([2H])([2H])Oc1ncc(-c2ccn3nc(N)nc3c2)cc1C(=O)NC([2H])([2H])c1cc(OC(F)(F)F)ccc1F` [Example 93, 5-{2-amino-[1,2,4]triazolo[1,5-a]pyridin-7-yl}-N-{[2-fluoro-5-(trifluoromethoxy)phenyl] (deutero)methyl}-2-(deutero)methoxypyridine-3-carboxamide] was tested, and the IC50 [1, 3] was 20 to 200 nM and the IC50 [2, 4] was < 20 nM.

With `[2H]C([2H])([2H])Oc1ncc(-c2ccn3nc(N)nc3c2)cc1C(=O)NCc1cc(F)cc(F)c1OCC1CC1` [Example 94, 5-{2-amino-[1,2,4]triazolo[1,5-a]pyridin-7-yl}-N-{[2-(cyclopropylmethoxy)-3,5-difluorophenyl]methyl}-2-(deutero)methoxypyridine-3-carboxamide] the IC50 [1, 5] was < 20 nM and the IC50 [2, 4] was < 20 nM.

`[2H]C([2H])([2H])c1ncc(-c2ccn3nc(N)nc3c2)cc1C(=O)NCc1cc(OC(F)(F)F)ccc1F` [Example 96, 5-{2-amino-[1,2,4]triazolo[1,5-a]pyridin-7-yl}-N-{[2-fluoro-5-(trifluoromethoxy)phenyl]methyl}-2-(deutero)methylpyridine-3-carboxamide] was tested, and the IC50 [1, 3] was 20 to 200 nM and the IC50 [2, 4] was < 20 nM.

For `COc1ncc(-c2ccn3nc(N)nc3c2)cc1C(=O)N[C@H]1C[C@@H]1c1ccccc1` [Example 100, 5-{2-amino-[1,2,4]triazolo[1,5-a]pyridin-7-yl}-2-methoxy-N-[(1S,2R)-2-phenylcyclopropyl]pyridine-3-carboxamide], the IC50 [1, 7] was > 200 nM and the IC50 [2, 6] was 20 to 200 nM.

For `COc1ncc(-c2ccn3nc(N)nc3c2)cc1C(=O)NCc1ccc(F)cc1OC(=O)N(C)C` [Example 103], the IC50 [1, 7] was > 200 nM and the IC50 [2, 6] was 20 to 200 nM.

`COc1ncc(-c2ccn3nc(N)nc3c2)cc1C(=O)NCc1ccccc1S(=O)(=O)C(C)C` [Example 104, 5-{2-amino-[1,2,4]triazolo[1,5-a]pyridin-7-yl}-2-methoxy-N-{[2-(propane-2-sulfonyl)phenyl]methyl}pyridine-3-carboxamide] was tested, and the IC50 [1, 7] was > 200 nM and the IC50 [2, 4] was < 20 nM.

With `COc1ncc(-c2ccn3nc(N)nc3c2)cc1C(=O)NCc1ccccc1CN1CCOCC1` [Example 105, 5-{2-amino-[1,2,4]triazolo[1,5-a]pyridin-7-yl}-2-methoxy-N-({2-[(morpholin-4-yl)methyl]phenyl}methyl)pyridine-3-carboxamide] the IC50 [1, 7] was > 200 nM and the IC50 [2, 4] was < 20 nM.

For `COc1ncc(-c2ccn3nc(N)nc3c2)cc1C(=O)NCc1ccccc1-c1ccccc1` [Example 106, 5-{2-amino-[1,2,4]triazolo[1,5-a]pyridin-7-yl}-N-({[1,1′-biphenyl]-2-yl}methyl)-2-methoxypyridine-3-carboxamide], the IC50 [1, 5] was < 20 nM and the IC50 [2, 4] was < 20 nM.

For `COc1ncc(-c2ccn3nc(N)nc3c2)cc1C(=O)Nc1cnn(C(c2ccccc2)c2ccccc2)c1` [Example 107, 5-{2-amino-[1,2,4]triazolo[1,5-a]pyridin-7-yl}-N-[1-(diphenylmethyl)-1H-pyrazol-4-yl]-2-methoxypyridine-3-carboxamide], the IC50 [1, 7] was > 200 nM and the IC50 [2, 6] was 20 to 200 nM.

For `COc1ncc(-c2ccn3nc(N)nc3c2)cc1C(=O)NCc1ccccc1N1CCC(C)CC1` [Example 108, 5-{2-amino-[1,2,4]triazolo[1,5-a]pyridin-7-yl}-2-methoxy-N-{[2-(4-methylpiperidin-1-yl)phenyl]methyl}pyridine-3-carboxamide], the IC50 [1, 5] was < 20 nM and the IC50 [2, 4] was < 20 nM.

`COc1ncc(-c2ccn3nc(N)nc3c2)cc1C(=O)NCc1ccccc1Oc1ccccn1` [Example 109, 5-{2-amino-[1,2,4]triazolo[1,5-a]pyridin-7-yl}-2-methoxy-N-{[2-(pyridin-2-yloxy)phenyl]methyl}pyridine-3-carboxamide] was tested, and the IC50 [1, 5] was < 20 nM and the IC50 [2, 4] was < 20 nM.

`COc1ncc(-c2ccn3nc(N)nc3c2)cc1C(=O)NCc1ccccc1Oc1ccc(F)cc1` [Example 110, 5-{2-amino-[1,2,4]triazolo[1,5-a]pyridin-7-yl}-N-{[2-(4-fluorophenoxy)phenyl]methyl}-2-methoxypyridine-3-carboxamide] was tested, and the IC50 [1, 5] was < 20 nM and the IC50 [2, 4] was < 20 nM.

In the case of `COc1ncc(-c2ccn3nc(N)nc3c2)cc1C(=O)NCc1ccccc1S(=O)(=O)N1CCCCCC1` [Example 111, 5-{2-amino-[1,2,4]triazolo[1,5-a]pyridin-7-yl}-N-{[2-(azepane-1-sulfonyl)phenyl]methyl}-2-methoxypyridine-3-carboxamide], the IC50 [1, 7] is reported as > 200 nM and the IC50 [2, 4] is reported as < 20 nM.

In the case of `COc1ncc(-c2ccn3nc(N)nc3c2)cc1C(=O)N1CCC[C@@H](Cc2cccc(F)c2)C1` [Example 114, 7-{5-[(3S)-3-[(3-fluorophenyl)methyl]piperidine-1-carbonyl]-6-methoxypyridin-3-yl}-[1,2,4]triazolo[1,5-a]pyridin-2-amine], the IC50 [1, 5] is reported as < 20 nM and the IC50 [2, 4] is reported as < 20 nM.

With `COc1ncc(-c2ccn3nc(N)nc3c2)cc1C(=O)NCc1ccccc1OC1CCOCC1` [Example 115, 5-{2-amino-[1,2,4]triazolo[1,5-a]pyridin-7-yl}-2-methoxy-N-{[2-(oxan-4-yloxy)phenyl]methyl}pyridine-3-carboxamide] the IC50 [1, 5] was < 20 nM and the IC50 [2, 4] was < 20 nM.

`COc1ncc(-c2ccn3nc(N)nc3c2)cc1C(=O)NCc1cc(C(F)(F)F)ccc1F` [Example 116, 5-{2-amino-[1,2,4]triazolo[1,5-a]pyridin-7-yl}-N-{[2-fluoro-5-(trifluoromethyl)phenyl]methyl}-2-methoxypyridine-3-carboxamide] was tested, and the IC50 [1, 3] was 20 to 200 nM and the IC50 [2, 6] was 20 to 200 nM.

With `COc1ncc(-c2ccn3nc(N)nc3c2)cc1C(=O)N1CCCC(Cc2ccc(Cl)cc2)C1` (stereo not shown) [Example 117, 7-(5-{3-[(4-chlorophenyl)methyl]piperidine-1-carbonyl}-6-methoxypyridin-3-yl)-[1,2,4]triazolo[1,5-a]pyridin-2-amine] the IC50 [1, 7] was > 200 nM and the IC50 [2, 6] was 20 to 200 nM.
